Measurements taken from patent US4370489A, “Herbicidal compounds” (Hoechst Aktiengesellschaft, priority 1976, dated 1983).

Columns and labels:
Echinochloa [1] = assay: Pre-emergence greenhouse pot trial, Echinochloa (Example V, Table V); assay type: in vivo
Procedure: (§1) The results and also the results of all following examples were evaluated 4 weeks later according to the following scheme:
(§2) In a greenhouse the compounds to be tested were sprayed on the surface of the soil directly after sowing. […] Dicotyledonous crop plants (the same as used in Example I) were not damaged by the applied amounts.
(§3) Effect on weed grasses in a pre-emergence process (evalua-
(§4) tion scheme) experiment in pots in the greenhouse.

Avena ludoviciana = assay: Post-emergence treatment, pots on a site without roof, Avena ludoviciana (Example IV, Table IV); assay type: in vivo; conditions: post-emergence, emulsion concentrate
Procedure: as §1
(§5) In summer a further experiment was carried through under similar conditions to compare the effect of compound 1a with that of comparative compound A. Both compounds were used in the form of an emulsion concentrate (Table IV).
(§6) Post-emergence treatment (evaluation scheme); experiment
(§7) in pots on a site without roof

Echinochloa [2] = assay: Post-emergence greenhouse pot trial, Echinochloa (Example I, Table I); assay type: in vivo; conditions: greenhouse pots, 4 weeks
Procedure: (§8) Seeds of weed grasses were sown in pots filled with loamy soil and placed in the greenhouse for germination and emergence. As soon as the plants had developed 3 or 4 leaves, they were sprayed with wettable powder formulations, suspended in water, of compounds according to the invention.
as §1
(§9) 4 is still considered an acceptable herbicidal effect in weeds and a satisfactory preserving effect in crop plants (cf. Bolle, Nachrichtenblatt des Deutschen Pflanzenschutzdienstes 16, 1964, pages 92-94).
(§10) Effect on weed grasses in a post-emergence trial in pots
(§11) in the greenhouse (Evaluation scheme)

Lolium [3] = assay: Pre-emergence greenhouse pot trial, Lolium (Example V, Table V); assay type: in vivo
Procedure: as §1, §2, §3, §4

Lolium [4] = assay: Post-emergence greenhouse pot trial, Lolium (Example I, Table I); assay type: in vivo; conditions: greenhouse pots, 4 weeks
Procedure: as §8, §1, §9, §10, §11

Digitaria [5] = assay: Pre-emergence greenhouse pot trial, Digitaria (Example V, Table V); assay type: in vivo
Procedure: as §1, §2, §3, §4

spring wheat [6] = assay: Post-emergence trial in two stages, pots on a site without roof, spring wheat (Example II, Table II); assay type: in vivo
Procedure: as §1
(§12) The amounts of active compound required for a 90% effect, determined by the probit method (cf. Bliss, Annals of Applied Biology, 22 1935), show very distincly the difference between the compound of the invention and the comparative compound. […] None of the compounds did any harm to the wheat.
(§13) Post-emergence treatment in two different stages of development
(§14) Experiments in pots on a site without roof
(§15) stage 1: 3 to 4 leaves with beginning growth of side
(§16) stage 2: main tillering to terminated tillering.

wild oat = assay: Field trial in wild oat, post-emergence treatment (Example VI, Table VI); assay type: in vivo; conditions: for efficiency in % (counting of panicles) / evaluation 5 weeks after treatment: post-emergence
Procedure: In a field trial compound 1a of the invention was sprayed in the form of a 36% wettable powder formulation onto wild oat (single system, natural growth) after the plants had developed 3 or 4 leaves.
Three lots each were treated with different concentrations of the active compound and the comparative compound, the amount of spray liquor applied being 600 liters per hectare. Besides the usual visual evaluation at the end of the trial, the number of panicles per square meter was counted. In the untreated lots 400 to 500 panicles were counted per square meter, i.e. the field was heavily infected.
The relations are still more distinct when the amount of active compound required for a 90% effect is determined by the probit method (graphical evaluation) mentioned in Example II.

Setaria [7] = assay: Pre-emergence greenhouse pot trial, Setaria (Example V, Table V); assay type: in vivo
Procedure: as §1, §2, §3, §4

Avena fatua [8] = assay: Post-emergence treatment, pots on a site without roof, Avena fatua (Example IV, Table IV); assay type: in vivo; conditions: post-emergence, emulsion concentrate
Procedure: as §1, §5, §6, §7

Setaria [9] = assay: Post-emergence greenhouse pot trial, Setaria (Example I, Table I); assay type: in vivo; conditions: greenhouse pots, 4 weeks
Procedure: as §8, §1, §9, §10, §11

spring barley = assay: Post-emergence treatment, pots on a site without roof, spring barley (Example IV, Table IV); assay type: in vivo; conditions: emulsion concentrate; note: ranges in brackets are in %
Procedure: as §1, §5, §6, §7

spring wheat [10] = assay: Post-emergence treatment, pots on a site without roof, spring wheat (Example IV, Table IV); assay type: in vivo; conditions: emulsion concentrate; note: ranges in brackets are in %
Procedure: as §1, §5, §6, §7

Digitaria [11] = assay: Post-emergence greenhouse pot trial, Digitaria (Example I, Table I); assay type: in vivo; conditions: greenhouse pots, 4 weeks
Procedure: as §8, §1, §9, §10, §11

Alopecurus = assay: Post-emergence greenhouse pot trial, annual blackgrass (Example I, Table I); assay type: in vivo, annual blackgrass (Alopecurus); conditions: for Effect on weed grasses (evaluation scheme number), Alopecurus: greenhouse pots, 4 weeks
Procedure: as §8, §1, §9, §10, §11

sugar beet = assay: Post emergence treatment in two stages, boxes on a site without roof, sugar beet (Table III); assay type: in vivo; conditions: 0.9 kg/hectare
Procedure: as §1
(§17) Effect on wild oat and sugar beet
(§18) Post emergence treatment in two stages of development
(§19) boxes 20 × 24 × 22 cm in size on a site without roof

Alopecurus myos. = assay: Post-emergence treatment, pots on a site without roof, blackgrass (Example IV, Table IV); assay type: in vivo, annual black-grass (Alopecurus); conditions: for Effect (evaluation scheme), Alopecurus myos.: post-emergence, emulsion concentrate
Procedure: as §1, §5, §6, §7

Avena fatua [12] = assay: Post emergence treatment in two stages, boxes on a site without roof, wild oat (Table III); assay type: in vivo; conditions: 0.9 kg/hectare
Procedure: as §1, §17, §18, §19

Avena fatua [13] = assay: Post-emergence trial in two stages, pots on a site without roof, wild oat (Example II, Table II); assay type: in vivo; conditions: for 90% effective dose: probit method; for Effect on wild oat (evaluation), Avena fatua: post-emergence
Procedure: as §1, §12, §13, §14, §15, §16

COC(=O)C(C)Oc1ccc(Oc2ccc(Cl)cc2Cl)cc1 (stereo not drawn) [A, methyl-2-[4-(2',4'-dichlorophenoxy)-phenoxy]-propionate, reference compound]
5 (85.0 to <90.0): Effect on weed grasses (evaluation scheme), Lolium (Lolium [3]; 1.25 kg/hectare) | Effect on weed grasses (evaluation scheme number), Lolium (Lolium [4]; 0.62 kg/hectare) | Effect on wild oat, Avena fatua, number (Avena fatua [12]; start of tillering) | Effect on wild oat (evaluation), Avena fatua (Avena fatua [13]; stage 1, 0.45 kg/hectare) | Effect on wild oat (evaluation), Avena fatua (Avena fatua [13]; stage 2, 0.45 kg/hectare) | Effect on wild oat (evaluation), Avena fatua (Avena fatua [13]; stage 2, 0.9 kg/hectare)
65.2%: efficiency in % (counting of panicles) (wild oat; 0.90 kg/hectare)
79%: degree of damage % (evaluation by weight), Avena fatua (Avena fatua [12]; start of tillering)
little: response of annual black-grass (Alopecurus) (Alopecurus myos.; in words)
7 (65.0 to <75.0): Effect (evaluation scheme), Avena ludoviciana (Avena ludoviciana; 0.225 kg/hectare) | Effect (evaluation scheme), Avena ludoviciana (Avena ludoviciana; 0.45 kg/hectare) | Effect on weed grasses (evaluation scheme number), Lolium (Lolium [4]; 0.15 kg/hectare) | Effect on weed grasses (evaluation scheme), Digitaria (Digitaria [5]; 0.62 kg/hectare) | evaluation 5 weeks after treatment (wild oat; 0.72 kg/hectare) | Effect on weed grasses (evaluation scheme number), Alopecurus (Alopecurus; 0.62 kg/hectare) | Effect on wild oat (evaluation), Avena fatua (Avena fatua [13]; stage 2, 0.225 kg/hectare)
4 (90.0 to <95.0): Effect on weed grasses (evaluation scheme), Echinochloa (Echinochloa [1]; 0.62 kg/hectare) | Effect on weed grasses (evaluation scheme number), Echinochloa (Echinochloa [2]; 0.15 kg/hectare) | Effect on weed grasses (evaluation scheme), Digitaria (Digitaria [5]; 1.25 kg/hectare) | Effect on weed grasses (evaluation scheme number), Setaria (Setaria [9]; 0.15 kg/hectare) | Effect on weed grasses (evaluation scheme number), Alopecurus (Alopecurus; 2.5 kg/hectare) | Effect (evaluation scheme), Alopecurus myos. (Alopecurus myos.; 0.9 kg/hectare)
2 (97.5 to <100): Effect on weed grasses (evaluation scheme number), Echinochloa (Echinochloa [2]; 2.5 kg/hectare) | Effect on weed grasses (evaluation scheme number), Setaria (Setaria [9]; 0.62 kg/hectare) | Effect on wild oat, Avena fatua, number (Avena fatua [12]; 3-leaf stage)
2 (0 to 2.5): sugar beet number (sugar beet; 2-leaf stage) | sugar beet number (sugar beet; 4-leaf stage)
8 (32.5 to <65.0): evaluation 5 weeks after treatment (wild oat; 0.54 kg/hectare) | Effect on weed grasses (evaluation scheme), Setaria (Setaria [7]; 0.62 kg/hectare) | Effect (evaluation scheme), Avena fatua (Avena fatua [8]; 0.225 kg/hectare) | Effect (evaluation scheme), Avena fatua (Avena fatua [8]; 0.45 kg/hectare) | Effect on weed grasses (evaluation scheme number), Digitaria (Digitaria [11]; 0.15 kg/hectare) | Effect on weed grasses (evaluation scheme number), Alopecurus (Alopecurus; 0.15 kg/hectare) | Effect (evaluation scheme), Alopecurus myos. (Alopecurus myos.; 0.225 kg/hectare) | Effect on wild oat (evaluation), Avena fatua (Avena fatua [13]; stage 1, 0.225 kg/hectare) | Effect on wild oat (evaluation), Avena fatua (Avena fatua [13]; stage 2, 0.112 kg/hectare)
0.82 kg per hectare: 90% effective dose (Avena fatua [13]; stage 2 (main tillering to terminated tillering))
99%: degree of damage % (evaluation by weight), Avena fatua (Avena fatua [12]; 3-leaf stage)
1 (0): evaluation, spring wheat (spring wheat [6]; stage 1, 0.112 kg/hectare) | evaluation, spring wheat (spring wheat [6]; stage 1, 0.225 kg/hectare) | evaluation, spring wheat (spring wheat [6]; stage 1, 0.45 kg/hectare) | evaluation, spring wheat (spring wheat [6]; stage 1, 0.9 kg/hectare) | evaluation, spring wheat (spring wheat [6]; stage 2, 0.112 kg/hectare) | evaluation, spring wheat (spring wheat [6]; stage 2, 0.225 kg/hectare) | evaluation, spring wheat (spring wheat [6]; stage 2, 0.45 kg/hectare) | evaluation, spring wheat (spring wheat [6]; stage 2, 0.9 kg/hectare) | evaluation scheme, spring barley (spring barley; 0.225 kg/hectare) | evaluation scheme, spring barley (spring barley; 0.45 kg/hectare) | evaluation scheme, spring barley (spring barley; 0.9 kg/hectare) | evaluation scheme, spring wheat (spring wheat [10]; 0.225 kg/hectare) | evaluation scheme, spring wheat (spring wheat [10]; 0.45 kg/hectare) | evaluation scheme, spring wheat (spring wheat [10]; 0.9 kg/hectare)
2.7 kg/hectare: amount of active compound required for a 90% effect (wild oat; without wetting agent, probit method (graphical evaluation))
9 (0 to <32.5): Effect on wild oat (evaluation), Avena fatua (Avena fatua [13]; stage 1, 0.112 kg/hectare)
2.5 kg per hectare: amount sufficient/required to keep blackgrass satisfactorily under control (Alopecurus; greenhouse)
59.9%: efficiency in % (counting of panicles) (wild oat; 0.72 kg/hectare)
50.7%: efficiency in % (counting of panicles) (wild oat; 0.54 kg/hectare)
6 (75.0 to <85.0): Effect (evaluation scheme), Avena ludoviciana (Avena ludoviciana; 0.9 kg/hectare) | Effect on weed grasses (evaluation scheme), Lolium (Lolium [3]; 0.62 kg/hectare) | evaluation 5 weeks after treatment (wild oat; 0.90 kg/hectare) | Effect on weed grasses (evaluation scheme), Setaria (Setaria [7]; 1.25 kg/hectare) | Effect (evaluation scheme), Avena fatua (Avena fatua [8]; 0.9 kg/hectare) | Effect (evaluation scheme), Alopecurus myos. (Alopecurus myos.; 0.45 kg/hectare)
insufficient: effect on wild oat (wild oat; 0.90 kg per hectare, in words)
1 (100): Effect on weed grasses (evaluation scheme number), Setaria (Setaria [9]; 2.5 kg/hectare) | Effect on weed grasses (evaluation scheme number), Digitaria (Digitaria [11]; 2.5 kg/hectare)
3 (95.0 to <.97.5): Effect on weed grasses (evaluation scheme), Echinochloa (Echinochloa [1]; 1.25 kg/hectare) | Effect on weed grasses (evaluation scheme number), Echinochloa (Echinochloa [2]; 0.62 kg/hectare) | Effect on weed grasses (evaluation scheme number), Lolium (Lolium [4]; 2.5 kg/hectare) | Effect on weed grasses (evaluation scheme number), Digitaria (Digitaria [11]; 0.62 kg/hectare) | Effect on wild oat (evaluation), Avena fatua (Avena fatua [13]; stage 1, 0.9 kg/hectare)
0.55 kg per hectare: 90% effective dose (Avena fatua [13]; stage 1 (3 to 4 leaves with beginning growth of side))
